The text below walks through data of patent publication US7592344B2, “NK1 and NK2-antagonists and compositions and methods of using the same” (Solvay Pharmaceuticals GmbH, priority 2005, dated 2009).

In one test the target is T1, NK2 receptors (Cavia porcellus, UniProt Q64077).
T1 construct: from tissue; host or cells: whole animal: anesthetized Pirbright-White guinea pigs
T1 sequence (Q64077 1-402): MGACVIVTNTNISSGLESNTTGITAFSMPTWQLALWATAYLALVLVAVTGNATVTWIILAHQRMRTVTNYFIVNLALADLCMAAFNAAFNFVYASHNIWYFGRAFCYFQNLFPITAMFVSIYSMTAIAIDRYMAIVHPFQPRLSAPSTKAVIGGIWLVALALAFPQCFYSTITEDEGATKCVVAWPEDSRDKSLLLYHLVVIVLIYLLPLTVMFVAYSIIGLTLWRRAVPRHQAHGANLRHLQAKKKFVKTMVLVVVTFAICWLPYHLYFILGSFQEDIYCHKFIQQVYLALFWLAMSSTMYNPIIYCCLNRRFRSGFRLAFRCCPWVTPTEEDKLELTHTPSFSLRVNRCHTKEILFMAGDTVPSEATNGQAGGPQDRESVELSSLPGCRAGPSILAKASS
In words: Functional NK2 antagonism on isolated guinea pig gall-bladder (inhibition of NKA-induced contraction). Particulars: NKA 0.1 μmol/l, two hours' incubation, IC50 in mol/l. On the procedure: 4. Determination of the Functional […] of the Test Substances on Isolated Guinea Pig Tissue In Vitro.
The NK2 receptor-antagonizing action of the test substances was determined on isolated gall-bladder preparations from Pirbright-White guinea pigs, held in an oxygen-saturated nutrient solution. To this end, the preparations were fastened on one hand in the nutrient solution to organ holders and on the other hand on a force meter by a thread.
The concentration of the test substances was increased iteratively in the subsequent experiments as a function of the result in logarithmic whole or half steps, until at least one concentration above or below 50% inhibition of contraction was determined (up to at most 10^−5 mol/l). For each concentration, the average value of inhibition of contraction was calculated from 2 to 4 preparations. In each case, the concentration of half-maximum inhibition (IC50) per test substance was calculated as characteristic variable. In each case the logarithmized value of the IC50 per test substance is given as plC50 in [mol/l].

The target of the next test is T2, NK1 receptors (Cavia porcellus, UniProt P30547).
T2 construct: from tissue; host or cells: whole animal: anesthetized Pirbright-White guinea pigs
In words: Functional NK1 antagonism on isolated guinea pig aorta rings (inhibition of Substance P-induced relaxation). To be noted: phenylephrine tone, 0.01 μmol Substance P. The method, then: 3. Determining of the Functional NK1 Antagonism of the Test Substances on Isolated Guinea Pig Tissue In Vitro
The action antagonistic to NK1 receptors of the test substances was measured in vitro on isolated ring preparations, kept in an oxygenated nutrient solution, of the aortas of Pirbright-White guinea pigs.
In order to measure the contraction of the vessel muscles, the preparations were fixed to a hook, joined by a thread to a force measuring apparatus and the contractions were recorded in each case on a plotter. The aorta preparations were tonicized with phenylephrine. […] The relaxations before and after the administration of the test substance were qualified in percent. The effective concentration of the half maximum inhibition of the relaxation of the tone (=EC50) was calculated. The negative common logarithm of the EC50 value (=pEC50) was given as characteristic variable. The pEC50 value is a measurement of the functional effectiveness of the test substances on NK1 receptors.

The next test addresses T3, human NK2 receptor (Homo sapiens, UniProt P21452).
T3 sequence (P21452 1-398): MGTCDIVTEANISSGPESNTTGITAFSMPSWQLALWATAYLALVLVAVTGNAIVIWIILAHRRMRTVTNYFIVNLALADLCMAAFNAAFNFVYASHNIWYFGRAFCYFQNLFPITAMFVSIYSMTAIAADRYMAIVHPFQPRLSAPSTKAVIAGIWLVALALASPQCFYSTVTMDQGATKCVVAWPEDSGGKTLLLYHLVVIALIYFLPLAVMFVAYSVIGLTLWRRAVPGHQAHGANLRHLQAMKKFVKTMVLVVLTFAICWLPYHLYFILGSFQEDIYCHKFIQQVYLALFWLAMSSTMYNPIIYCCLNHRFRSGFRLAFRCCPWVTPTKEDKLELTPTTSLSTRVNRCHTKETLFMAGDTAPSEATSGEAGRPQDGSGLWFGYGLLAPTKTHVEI
Description: Binding power to NK2 receptors in vitro ([3H]-SR 48968 displacement, CHO cell membranes). Further details: expressed in transfected cells; host or cells: CHO cells (membrane preparation). Particulars: human NK2 receptor in CHO membranes, ligand [3H]-SR 48968, 90 min incubation. On the procedure: The affinity of the test substances to human NK2 receptors was measured in vitro. The ability of the test substances to displace the selective NK2 receptor antagonist SR 48968 (=saredutant) used as reference ligand from its corresponding bond was determined.
The receptor binding studies were carried out with radioactively marked [^3H]-SR 48968 (from Amersham) as ligand. For the binding test, different samples of a membrane preparation of CHO cells (=egg cells of the Chinese hamster, […]), which express the human NK2 receptor (for preparation, see N. P. Gerard et al., Journal of Biological Chemistry 265/33 (1990) 20455-20462), were incubated for 90 minutes (=min.) with a solution of the marked ligand, with the incubation mixtures containing no test substance or additions of different concentrations of test substance. Then in each case the membrane-bound ligands in the samples were separated from free ligands by filtration. The fraction remaining in the filter was washed several times with buffer solution, before its radioactivity was measured using a liquid scintillation counter. That concentration which effects half-maximum displacement of the bound reference ligand was determined as IC50 of the respective test substance. The inhibition constant (Ki value) of the test substance was calculated from the respective IC50 value, and was stated as the negative logarithmized value thereof (pKi).
If several measurements were performed, the average thereof was listed each time. The pKi value is a measurement of the affinity of the test substances to human NK2 receptors.

Another test deals with human NK1 receptor (Homo sapiens, UniProt P25103). Description: Binding power to NK1 receptors in vitro ([3H]-Substance P displacement, CHO cell membranes). Further details: expressed in transfected cells; host or cells: CHO cells (membrane preparation). To be noted: human NK1 receptor in CHO membranes, ligand [3H]-Substance P. On the procedure: 1. Determination of the Binding Power of the Test Substances to NK1 Receptors In Vitro.
Affinity of the test substances to human NK1 receptors was measured in vitro.
The receptor binding studies were performed with [^3H]-Substance P as ligand. For the binding test, different samples of a membrane preparation of CHO cells (=egg cells of the Chinese hamster, […]), which express the human NK1 receptor (“Accession Number” of the associated nucleic acid sequence=M74290; “Accession Number” of the associated protein sequence=P25103; cf. Takeda, Y.; Chou, K. B., Takeda, J.; Sachais, B. S. and Krause, J. E; Biochemical and Biophysical Research Communications, 179(3) (1991) 1232-1240), were incubated with a solution of the marked ligand, with the incubation mixtures containing no test substance or additions of different concentration of test substance. Then, separation of bound and free ligands was performed in each of the samples with the aid of glass-fiber filtration. The fraction remaining in the filter was washed several times with buffer solution and then the radioactivity of the fraction remaining in the filter was measured using a beta scintillation counter.
For the compounds of Examples 1 to 14, that concentration which effects half maximum displacement of the bound ligand was determined as IC50 of the respective test substance. From this, the corresponding inhibition constant (Ki value) of the test substance was calculated, and was stated as the negative common logarithm of the Ki value (=pKi value) The pKi value is a measurement of the affinity of the test substances to human NK1 receptors.

Sequence of human NK1 receptor (P25103 whole entry): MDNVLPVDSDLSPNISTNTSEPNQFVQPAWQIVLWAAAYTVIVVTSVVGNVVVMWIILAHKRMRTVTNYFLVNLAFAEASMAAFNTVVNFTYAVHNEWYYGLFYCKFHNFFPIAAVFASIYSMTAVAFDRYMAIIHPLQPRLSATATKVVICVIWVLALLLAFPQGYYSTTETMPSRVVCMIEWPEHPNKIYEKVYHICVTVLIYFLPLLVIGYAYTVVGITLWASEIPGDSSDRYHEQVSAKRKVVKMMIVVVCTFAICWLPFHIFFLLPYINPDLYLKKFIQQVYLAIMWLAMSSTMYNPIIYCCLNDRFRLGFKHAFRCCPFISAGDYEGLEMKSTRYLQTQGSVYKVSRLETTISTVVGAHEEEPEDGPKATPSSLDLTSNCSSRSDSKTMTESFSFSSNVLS
T2 sequence (P30547 whole entry): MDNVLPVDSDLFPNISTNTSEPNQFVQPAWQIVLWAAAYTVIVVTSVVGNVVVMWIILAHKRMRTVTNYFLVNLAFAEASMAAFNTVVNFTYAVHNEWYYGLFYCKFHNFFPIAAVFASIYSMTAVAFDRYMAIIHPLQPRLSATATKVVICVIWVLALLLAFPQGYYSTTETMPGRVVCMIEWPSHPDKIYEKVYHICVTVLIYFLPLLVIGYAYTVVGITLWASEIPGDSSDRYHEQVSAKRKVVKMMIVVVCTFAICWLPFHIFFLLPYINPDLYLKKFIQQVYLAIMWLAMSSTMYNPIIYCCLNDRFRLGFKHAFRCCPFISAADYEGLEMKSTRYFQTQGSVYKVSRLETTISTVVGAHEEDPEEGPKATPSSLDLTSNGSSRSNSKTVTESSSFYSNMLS

`CN(CC(CCN1CCN(C(c2ccsc2)C(O)C(O)C(O)CO)CC1)c1ccc(Cl)c(Cl)c1)C(=O)c1cc(C#N)cc2ccccc12` (stereo not shown) [Compound 5]: the negative-log IC50 (pIC50) against NK2 receptors stood at 7.5. Further, the pEC50 on NK1 receptors is listed as 10.0. Also, on human NK2 receptor, the “pKi (NK2)” value is given as 7.3. In addition, at human NK1 receptor, the “pKi (NK1)” value came out at 8.9.
